The source of these data is ChEMBL document CHEMBL4828726, “Modification of 5-methylphenanthridium from benzothiazoles to indoles as potent FtsZ inhibitors: Broadening the antibacterial spectrum toward vancomycin-resistant enterococci” (Eur J Med Chem, 2021).

Series [1] concerns Enterococcus faecalis. In words: Ratio of MBC to MIC against Vancomycin-susceptible Enterococcus faecalis ATCC 29212. The class given is functional.
Series [2] has as its system Enterococcus faecium. Description: Bactericidal activity against Vancomycin-susceptible Enterococcus faecium ATCC 19434 assessed as inhibition of bacterial growth measured after 20 hrs by two-fold microdilution assay. The class given is functional.
In series [3] the test system is Streptococcus pyogenes. In words: Antibacterial activity against erythromycin-resistant Streptococcus pyogenes assessed as inhibition of bacterial growth measured after 20 hrs by two-fold microdilution assay. The class given is functional. For orientation: Broth dilution looks for growth in wells or tubes with falling amounts of substance.
In series [4] the test system is Enterococcus faecalis. In words: Bactericidal activity against Vancomycin-susceptible Enterococcus faecalis ATCC 29212 assessed as inhibition of bacterial growth measured after 20 hrs by two-fold microdilution assay. The series is classed as functional.
In series [5] the test system is Staphylococcus aureus. In words: Bactericidal activity against penicillin-resistant Staphylococcus aureus ATCC 31007 assessed as inhibition of bacterial growth measured after 20 hrs by two-fold microdilution assay. The class given is functional.
Series [6] concerns Enterococcus faecium. Description: Bactericidal activity against Vancomycin-resistant Enterococcus faecium ATCC 51559 assessed as inhibition of bacterial growth measured after 20 hrs by two-fold microdilution assay. The class given is functional.
Series [7] has as its system Bacillus pumilus. In words: Ratio of MBC to MIC against penicillin-susceptible Bacillus pumilus CMCC63202. The class given is functional.
The subject of series [8] is Bacillus pumilus. In words: Antibacterial activity against penicillin-susceptible Bacillus pumilus CMCC63202 assessed as inhibition of bacterial growth measured after 20 hrs by two-fold microdilution assay. The class given is functional.
The subject of series [9] is Escherichia coli. In words: Antibacterial activity against penicillin-susceptible Escherichia coli ATCC 25922 assessed as inhibition of bacterial growth measured after 20 hrs by two-fold microdilution assay. The class given is functional.
In series [10] the test system is Bacillus subtilis. Description: Ratio of MBC to MIC against penicillin-susceptible Bacillus subtilis ATCC 9372. The series is classed as functional.
Series [11] has as its system Streptococcus pyogenes. In words: Antibacterial activity against erythromycin-susceptible Streptococcus pyogenes assessed as inhibition of bacterial growth measured after 20 hrs by two-fold microdilution assay. The class given is functional.
Series [12] relates to Staphylococcus aureus. In words: Antibacterial activity against methicillin-resistant Staphylococcus aureus ATCC43300 assessed as inhibition of bacterial growth measured after 20 hrs by two-fold microdilution assay. The class given is functional.
Series [13] concerns Staphylococcus aureus. Description: Antibacterial activity against penicillin-resistant Staphylococcus aureus ATCC 31007 assessed as inhibition of bacterial growth measured after 20 hrs by two-fold microdilution assay. The series is classed as functional.
Series [14] relates to Enterococcus faecium. Description: Antibacterial activity against Vancomycin-resistant Enterococcus faecium ATCC 51559 assessed as inhibition of bacterial growth measured after 20 hrs by two-fold microdilution assay. The series is classed as functional.
The test system of series [15] is Pseudomonas aeruginosa. In words: Antibacterial activity against penicillin-susceptible Pseudomonas aeruginosa ATCC 27853 assessed as inhibition of bacterial growth measured after 20 hrs by two-fold microdilution assay. The class given is functional.
Series [16] concerns Enterococcus faecalis. Description: Antibacterial activity against Vancomycin-susceptible Enterococcus faecalis ATCC 29212 assessed as inhibition of bacterial growth measured after 20 hrs by two-fold microdilution assay. The series is classed as functional.
Series [17] deals with Bacillus subtilis. Description: Bactericidal activity against penicillin-susceptible Bacillus subtilis ATCC 9372 assessed as inhibition of bacterial growth measured after 20 hrs by two-fold microdilution assay. The series is classed as functional.
The subject of series [18] is Staphylococcus epidermidis. In words: Antibacterial activity against penicillin-resistant Staphylococcus epidermidis assessed as inhibition of bacterial growth measured after 20 hrs by two-fold microdilution assay. The series is classed as functional.
The test system of series [19] is Enterococcus faecium. Description: Antibacterial activity against Vancomycin-susceptible Enterococcus faecium ATCC 19434 assessed as inhibition of bacterial growth measured after 20 hrs by two-fold microdilution assay. The series is classed as functional.
Series [20] deals with Enterococcus faecalis. Description: Antibacterial activity against Vancomycin-resistant Enterococcus faecalis ATCC 51299 assessed as inhibition of bacterial growth measured after 20 hrs by two-fold microdilution assay. The series is classed as functional.
The subject of series [21] is Enterococcus faecalis. In words: Ratio of MBC to MIC against Vancomycin-resistant Enterococcus faecalis ATCC 51299. The class given is functional.
The subject of series [22] is Staphylococcus aureus. In words: Ratio of MBC to MIC against erythromycin-susceptible Staphylococcus aureus ATCC 25923. The class given is functional.
Series [23] relates to Enterococcus faecalis. Description: Bactericidal activity against Vancomycin-resistant Enterococcus faecalis ATCC 51299 assessed as inhibition of bacterial growth measured after 20 hrs by two-fold microdilution assay. The series is classed as functional.
Series [24] has as its system Staphylococcus aureus. Description: Bactericidal activity against methicillin-resistant Staphylococcus aureus ATCC43300 assessed as inhibition of bacterial growth measured after 20 hrs by two-fold microdilution assay. The series is classed as functional.
The subject of series [25] is Staphylococcus aureus. Description: Antibacterial activity against erythromycin-susceptible Staphylococcus aureus ATCC 25923 assessed as inhibition of bacterial growth measured after 20 hrs by two-fold microdilution assay. The series is classed as functional.
Series [26] concerns Staphylococcus aureus. In words: Ratio of MBC to MIC against penicillin-resistant Staphylococcus aureus ATCC 31007. The class given is functional.
In series [27] the test system is Staphylococcus aureus. Description: Antibacterial activity against clinical isolate Staphylococcus aureus C1 assessed as inhibition of bacterial growth measured after 20 hrs by two-fold microdilution assay. The series is classed as functional.
Series [28] relates to Bacillus subtilis. In words: Antibacterial activity against penicillin-susceptible Bacillus subtilis ATCC 9372 assessed as inhibition of bacterial growth measured after 20 hrs by two-fold microdilution assay. The class given is functional.
Series [29] has as its system Enterococcus faecium. In words: Ratio of MBC to MIC against Vancomycin-susceptible Enterococcus faecium ATCC 19434. The series is classed as functional.
Series [30] relates to Bacillus pumilus. Description: Bactericidal activity against penicillin-susceptible Bacillus pumilus CMCC63202 assessed as inhibition of bacterial growth measured after 20 hrs by two-fold microdilution assay. The class given is functional.
Series [31] relates to Staphylococcus aureus. In words: Bactericidal activity against erythromycin-susceptible Staphylococcus aureus ATCC 25923 assessed as inhibition of bacterial growth measured after 20 hrs by two-fold microdilution assay. The class given is functional.
The subject of series [32] is Staphylococcus aureus. Description: Antibacterial activity against Staphylococcus aureus ATCC 25923 assessed as fold increase in MIC value measured after 1 passage by Multi passage resistance assay. The class given is functional.
The subject of series [33] is Staphylococcus aureus. In words: Antibacterial activity against Staphylococcus aureus ATCC 25923 assessed as fold increase in MIC value measured after 15 passages by Multi passage resistance assay. The series is classed as functional.
Series [34] concerns Staphylococcus aureus. Description: Antibacterial activity against Staphylococcus aureus ATCC 25923 assessed as reduction of colony forming units at 32 ug/ml measured up to 24 hrs by Time kill assay. The series is classed as functional. On the set-up: scale not given: the % may be the effect or the level left. To be noted: dose 32 µg/ml; time hrs <=24.
In series [35] the test system is Staphylococcus aureus. In words: Antibacterial activity against Staphylococcus aureus ATCC 25923 assessed as fold increase in MIC value measured after 10 passages by Multi passage resistance assay. The series is classed as functional, organism-based.
In series [36] the test system is Staphylococcus aureus. Description: Ratio of MBC to MIC against methicilline-resistant Staphylococcus aureus ATCC43300. The class given is functional.
Series [37] deals with Staphylococcus aureus. In words: Antibacterial activity against Staphylococcus aureus ATCC 25923 assessed as decrease of bacterial growth measured up to 24 hrs by Time kill assay. The class given is functional, organism-based. The following applies: dose 4-32 µg/ml, time hrs <=24.
A short description of series [38]: Hemolytic activity against mouse RBC at 1 to 16 ug/ml measured after 1 hr by hemolysis assay relative to Triton X-100. The following applies: mouse red blood cells (erythrocytes), at 1 to 16 µg/mL, dose 1-16 µg/ml, read-out: Activity. The class given is ADME, cell-based, Erythrocyte.
Series [39] has as its system Pseudomonas aeruginosa. Description: Anti-biofilm activity against Pseudomonas aeruginosa ATCC 27853 assessed as inhibition of biofilm formation at 4 to 64 ug/ml measured after 20 hrs by crystal violet staining based biofilm formation inhibition assay. The class given is functional, organism-based. To be noted: dose 4-64 µg/ml.
Series [40] relates to Staphylococcus aureus. Description: Antibacterial activity against Staphylococcus aureus ATCC 25923 assessed as fold change in MIC value measured after 14 passages by Multi passage resistance assay. The class given is functional, organism-based.
Series [41] relates to Enterococcus faecium. Description: Ratio of MBC to MIC against Vancomycin-resistant Enterococcus faecium ATCC 51559. The series is classed as functional.

For orientation: MBC means the lowest tested concentration that kills the bacteria rather than only halting them. One may read the MIC as the least concentration at which growth counts as inhibited.

Calls of active or inactive are those of the source. No cut-off for these calls is given here. A value given as a limit tells only on which side of the number the result lay.

As to `Cc1ccc2c[n+](C)c3ccc(-c4ccc5ccn(Cc6ccc(C(F)(F)F)cc6)c5c4)cc3c2c1.[Cl-]`, the Ratio in [1] was 4; in [7], 8; in series [10], 1; in series [21] it was 8; in series [22] it was 2; in series [26], 4. Further, the Ratio in [29] is listed as 8. Besides, the minimum bactericidal concentration (MBC) in series [2] was 16 µg/mL; in series [4] it was 16 µg/mL; in [5] it was 16 µg/mL; in [6], 32 µg/mL; in series [17], more than 8 µg/mL; in [23], 32 µg/mL. Further, the minimum bactericidal concentration (MBC) came out at 8 µg/mL in series [24], 16 µg/mL in series [30] and 4 µg/mL in series [31]. Moreover, the MIC in series [3] was 8 µg/mL; in series [8] it was 2 µg/mL; in [9] it was more than 64 µg/mL; in series [11], 8 µg/mL; in series [12] it was 4 µg/mL; in series [13], 8 µg/mL. Also, the minimal inhibitory concentration (MIC) in series [14] was 4 µg/mL; in [15] it was more than 64 µg/mL; in [16] it was 4 µg/mL; in [18], 2 µg/mL; in [19], 2 µg/mL; in series [20], 4 µg/mL. For the same compound, the results for the minimal inhibitory concentration (MIC) in series [25], in series [27] and in series [28] were 2 µg/mL, 2 µg/mL and 8 µg/mL, respectively.
As to `CO[C@H]1/C=C/O[C@@]2(C)Oc3c(C)c(O)c4c(O)c(c(/C=N/N5CCN(C)CC5)c(O)c4c3C2=O)NC(=O)/C(C)=C\C=C\[C@H](C)[C@H](O)[C@@H](C)[C@@H](O)[C@@H](C)[C@H](OC(C)=O)[C@@H]1C` [RIFAMPIN], the figures for the “fold change (FC)” value in series [32] and in series [33] were 8 and more than 16000, respectively.
For the compound `CCCCn1ccc2ccc(-c3ccc4c(c3)c3c(C)cccc3c[n+]4C)cc21.[Cl-]`, the Activity in series [34] was more than 99.9%; in [37] it was “Dose-Dependent Effect”. The “fold change (FC)” value in series [32] was found to be 4. In addition, the MIC was 16 µg/mL in series [3]; 8 µg/mL in [8]; more than 64 µg/mL in [9]; 16 µg/mL in series [11]; 8 µg/mL in series [12]; 8 µg/mL in [13]. Besides, the MIC in [14] was 8 µg/mL; in series [15], more than 64 µg/mL; in series [16], 8 µg/mL; in [18], 16 µg/mL; in series [19], 8 µg/mL; in series [20], 16 µg/mL. Besides, the values for the MIC in series [25], in series [27] and in [28] were 1 µg/mL, 4 µg/mL and 4 µg/mL, respectively. Besides, the outcome in [35] and in series [40] was Active. Moreover, the MBC in [5] is more than 64 µg/mL; in series [17] it was 8 µg/mL; in series [24], 64 µg/mL; in series [30], more than 64 µg/mL; in series [31], 16 µg/mL. Besides, the Ratio in series [36] is 8; in series [10] it was 2; in series [22] it was 16. For the same compound, the hemolysis at 1 h in series [38] is less than 8%. Moreover, the outcome in series [39] was inactive.
With `Cc1ccc2c[n+](C)c3ccc(-c4ccc5ccn(Cc6ccc(OC(F)(F)F)cc6)c5c4)cc3c2c1.[Cl-]`, the Ratio in [1] came out at 4; in [7], 8; in series [41], 8; in series [36], 1; in [10], 1; in [22] it was 2. The results for the Ratio in series [26] and in series [29] were 1 and 4, respectively. In addition, the MBC in [2] is 16 µg/mL; in [4], 16 µg/mL; in series [5] it was 4 µg/mL; in series [6], 32 µg/mL; in [17], 4 µg/mL; in [23] it was 16 µg/mL. Further, the MBC in series [24] turned out to be 4 µg/mL; in series [30] it was 32 µg/mL; in series [31] it was 4 µg/mL. For the same compound, the MIC is 8 µg/mL in series [3]; 4 µg/mL in [8]; more than 64 µg/mL in [9]; 8 µg/mL in series [11]; 4 µg/mL in [12]; 4 µg/mL in series [13]. Further, the MIC was 4 µg/mL in series [14]; more than 64 µg/mL in series [15]; 4 µg/mL in series [16]; 2 µg/mL in series [18]; 4 µg/mL in series [19]; 4 µg/mL in [20]. The results for the MIC in series [25], in series [27] and in series [28] were 2 µg/mL, 4 µg/mL and 4 µg/mL, respectively.
